Data on six compounds can be found in patent US8530404B2, “Compounds and methods for treatment of cancer” (FibroGen, Inc., priority 2005, dated 2013).

For one experiment, the system named is HCT116-GFP colon tumors. Description: Orthotopically implanted human HCT116-GFP colon tumor mouse xenograft (Example 4). It is filed as in vivo. The settings on record: 60 mg/kg intraperitoneal at four day intervals, three doses. How it is done:
Procedures were carried out as described above for Example 3, except that the tumors of GFP-transfected H-460 cells were replaced with HCT116-GFP colon tumors, and surgical orthotopic implantation was directly into colon tissue.
The HCT116 tumor model used here is a well-characterized representative colon xenograft model. The isolation of the human HCT116 tumor cell line from a human colon carcinoma has been described. (Brattain et al (1981) Cancer Res 41:1751-1756.) To aid in the detection of tumors and metastases, HCT116 cells were transduced with genes directing the expression of fluorescent proteins (e.g., HCT116-GFP). The use of fluorescent HCT116-derived tumors in similar studies has been described previously. (Ross et al (2000) Nat Genet 24:227-235.)
HCT116-GFP tumor fragments harvested from the stock animals were transplanted into animals by surgical orthotopic implantation (SOI) as follows. The animals were anesthetized with isoflurane and the surgical area was sterilized using iodine and alcohol. After proper exposure of the colon following a lower midline abdominal incision, the serosa of the colon was removed and two pieces of 1 mm^3 tumor fragments per mouse were implanted. An 8-0 surgical suture was used to penetrate these small tumor pieces and suture them on the wall of the intestine. The intestine was then returned to the abdominal cavity. The incision in the abdominal wall was closed with a 6-0 surgical suture in one layer. The animals were kept under isoflurane anesthesia during surgery. All procedures of the operation described above were performed under a 7× magnification microscope (Olympus). Animals were kept in a barrier facility under HEPA filtration.
Administration of Compound A or 5-FU (5-Flurouracil) to the animals was initiated three days following tumor transplantation. 5-FU, a chemotherapeutic agent used as a positive control, was administered by intraperitoneal injection (60 mg/kg) at four day intervals for a total of three doses. Compound A was administered at either 20 mg/kg or 60 mg/kg three times per week. Tumor volumes were measured at day 15, day 22, and day 29.

Experiment [1] deals with REDD1/RTP801 gene expression. Description: REDD1/RTP801 gene expression in Hep3B cells (Affymetrix microarray). The settings on record: 25 μM, vs DMSO control. The class given is cell-based, human. How it is done:
(§1) To identify compounds useful in the methods of the present invention, the following studies were performed. The effect of compounds of the present invention on expression of various genes associated with anti-tumor activity (e.g., genes having anti-proliferative activity, genes having pro-apoptotic activity, genes having anti-tumor activity, etc.). In these experiments, the effect of compounds on BNIP3, BNIP3L, NDRG1, CDKN1C, and REDD1/RTP801 gene expression in various types of cultured tumor cells line was examined, including Hep3B cells (human hepatocellular carcinoma), Kelly neuroblastoma cells, and MCF7 cells (human breast cancer)
(§2) The effects of various compounds of the present invention on the expression of genes associated with tumor growth and progression were examined in Hep3B cells as follows. Hep3B cells (ATCC) were cultured in DMEM containing 8% fetal bovine serum (FBS) and antibiotics. For each experiment, Hep3 cells were added to 6-well tissue culture dishes (approximately 500,000 cells per well). After 8 hours, the media was replaced with DMEM containing 0.5% FBS. Sixteen hours later, various compounds of the present invention were added to the cultured cells to a final concentration of 25 μM. The cells were then harvested and added to RNA extraction buffer (RNeasy, Qiagen). RNA was isolated from cell lysates using RNeasy Mini spin columns (Qiagen) according to the manufacturer's instructions. Changes in expression of various gene transcript levels associated with tumor growth and progression were determined by Affymetrix microarray. Labeled probes were prepared and hybridized to U133A Affyrnetrix microarrays.
(§3) Changes in gene expression levels in vitro following compound addition are presented as fold change relative to gene expression levels observed in control cells treated with DMSO only. Data represents the average of two independent studies.

Experiment [2] relates to BNIP3 gene expression. Kind of experiment: BNIP3 gene expression in Hep3B cells (Affymetrix microarray). The class given is cell-based, human. The settings on record: 25 μM, vs DMSO control. The protocol:
as §1, §2, §3

Experiment [3] relates to NDRG1 gene expression. Kind of experiment: NDRG1 gene expression in Hep3B cells (Affymetrix microarray). It is filed as cell-based, human. The settings on record: 25 μM, vs DMSO control. How it is done: as §1, §2, §3
For experiment [4], the system named is BNIP3L gene expression. Description: BNIP3L gene expression in Hep3B cells (Affymetrix microarray). It is filed as cell-based, human. The settings on record: 25 μM, vs DMSO control. The protocol:
as §1, §2, §3

Experiment [5] has as its system BNIP3L gene expression. Description: In vivo BNIP3L gene expression in Swiss Webster mice (quantitative PCR). The settings on record: Mus musculus, iv, 4 h; kidney; single 60 mg/kg i.v. dose; four hours after administration; normalized to 18S; read-out: fold change in BNIP3L mRNA level. How it is done:
(§4) The effects of various compounds of the present invention on the expression of genes associated with tumor growth and progression (e.g., expression of genes associated with anti-proliferative effects) were examined in vivo as follows. In these studies, male Swiss Webster mice (25 g) were administered a single intravenous (i.v.) dose of various compounds (60 mg/kg) of the present invention via the tail vein. Four hours after administration of compound, the kidneys and liver were removed and preserved in RNAlater (Ambion). RNA isolation and cDNA synthesis was carried out as follows. Murine kidney tissue was added to TRIzol (Invitrogen) and homogenized using a 5-mm stainless steel bead for 4 minutes at 25 Hz in a Mixer Mill 300 (Qiagen). Homogenates were extracted with chloroform according to the manufacturer's instructions and aqueous supernatants were isolated. The aqueous supernatants were combined with equal volumes of 70% ethanol and then loaded onto RNeasy Mini spin columns (Qiagen). RNA was isolated according to the manufacturer's instructions.
(§5) Synthesis of cDNA from the isolated total RNA was carried out using Omniscript reverse transcriptase (Qiagen) and random primers according to the manufacturer's instructions. Measurement of gene expression levels in compound-treated animals and in vehicle-treated control animals was performed by quantitative PCR using TaqMan Universal PCR Master Mix (Applied Biosystems) and TaqMan Assay-on-Demand assays (Applied Biosystems) in a Prism 7000 system instrument (Applied Biosystems), according to manufacturer's instructions. The assays used were as follows: 18S ribosomal RNA, Hs99999901_s1; BNIP3, Mm00833810_g1; BNIP3L, Mm00786306_s1; NDRG1, Mm00440447_m1. Each PCR amplification reaction included a standard curve and a water blank. Data for gene expression levels for BNIP3, BNIP3L, and NDRG1 were normalized to that of 18S ribosomal RNA within each sample. Data is presented as fold change in specific mRNA levels relative to that of non-treated control animals.

The subject of experiment [6] is CDKN1C gene expression. Kind of experiment: CDKN1C gene expression in Kelly neuroblastoma cells. The class given is cell-based. The settings on record: Kelly cells; 20 μM; 20-24 hours; normalized to 18S RNA; vs DMSO control; read-out: fold-increase in CDKN1C mRNA expression. The protocol: as §1
(§6) The effects of various compounds of the present invention on the expression of genes associated with tumor growth and progression were examined in Kelly neuroblastoma cells as follows. Kelly neuroblastoma cells were grown in RPMI media. For each experiment, Kelly neuroblastoma cells were added to 96-well tissue culture plates (approximately 40,000 cells per well) such that the plated cells reached confluence the following day. On the following day, the cells were washed and the media replaced with RPMI containing 0.5% FBS. Various compounds of the present invention were added to the cultured cells to a final concentration of 20 μM, and the cells cultured for an additional 20-24 hours. DMSO (0.5%) was added to control cell cultures.
(§7) RNA was isolated from the Kelly neuroblastoma cells using a commercial kit and used for the preparation of cDNA. BNIP3, CDKN1C, and 18S RNA levels were measured using commercial kits (18S, Applied Biosystems cat#4319413E); BNIP3, Applied Biosystems cat#HS00969293 MH). RNA levels for BNIP3 and CDKN1C were normalized to that of 18S RNA and is presented as fold-change compared to that observed in DMSO control cultures. Kelly cell NDRG1 and BNIP3L mRNA levels were measured by Affymetrix microarray in a separate study. Cells were harvested after 6 hours incubation with 20 μM test compound or DMSO (0.5%) as control. RNA was isolated and labeled probes were prepared and hybridized to U133 Plus 2.0 Affymetrix microarrays. Changes in gene expression levels are presented as fold change compared to that of control (0.5% DMSO-treated) cultures.

In experiment [7] the test system is CDKN1C gene expression. Description: CDKN1C gene expression in MCF7 cells. The class given is cell-based. The settings on record: Homo sapiens; MCF7 cells; 20 μM; 20-24 hours; vs 0.5% DMSO control; read-out: fold-increase in CDKN1C mRNA expression. The protocol: as §1
(§8) The effects of various compounds of the present invention on the expression of genes associated with tumor growth and progression were examined in MCF7 breast cancer cells as follows. In some experiments, MCF7 (ATCC) cells were plated in 96-well tissue culture dishes (approximately 20,000 cells per well) and cultured in DMEM media supplemented with 10% serum. The following day, the cells were washed and the media was replaced with DMEM containing 0.5% FBS. Various compounds of the present invention were added to the cultured cells to a final concentration of 20 μM, and the cells cultured for an additional 20-24 hours. DMSO (0.5%) was added to control cell cultures. RNA was isolated as described above. Changes in gene expression levels are presented as fold change compared to that of control (0.5% DMSO-treated) cultures.

In experiment [8] the test system is BNIP3 gene expression. Description: In vivo BNIP3 gene expression in Swiss Webster mice (quantitative PCR). The settings on record: Mus musculus, iv, 4 h; kidney; single 60 mg/kg i.v. dose; four hours after administration; normalized to 18S; read-out: fold change in BNIP3 mRNA level. How it is done: as §4, §5
The test system of experiment [9] is BNIP3 gene expression. Kind of experiment: BNIP3 gene expression in Kelly neuroblastoma cells. The settings on record: Kelly cells; 20 μM; 20-24 hours; normalized to 18S RNA; vs DMSO control; read-out: fold-increase in BNIP3 mRNA expression. It is filed as cell-based. The protocol:
as §1, §6, §7

Experiment [10] has as its system NDRG1 gene expression. Kind of experiment: In vivo NDRG1 gene expression in Swiss Webster mice (quantitative PCR). The settings on record: Mus musculus, iv, 4 h; kidney; single 60 mg/kg i.v. dose; four hours after administration; normalized to 18S; read-out: fold change in NDRG1 mRNA level. The protocol: as §4, §5
Experiment [11] deals with BNIP3 gene expression. Description: BNIP3 gene expression in MCF7 cells. The class given is cell-based. The settings on record: Homo sapiens; MCF7 cells; 20 μM; 20-24 hours; vs 0.5% DMSO control; read-out: fold-increase in BNIP3 mRNA expression. The protocol:
as §1, §8
In other experiments, MCF7 cells were plated in 96-well tissue culture dishes as described above. After 24 hours, the cells were washed and the media was replaced with DMEM containing 0.5% FBS. Various compounds of the present invention were added to the cultured cells to a final concentration of 20 μM. DMSO (0.5%) was added to control cell cultures. After 24 hours, changes in gene expression of BNIP3 and 18S RNA were determined directly using one-step quantitative multiplex RT-PCR reactions according to the manufacturer's instructions (QuantiTect Multiplex RT-PCR Kit, Qiagen, catalog no. 204643). Changes in gene expression levels are presented as fold change compared to that of control (0.5% DMSO-treated) cultures.

For `O=c1[nH]cc(F)c(=O)[nH]1` [Compound 5-FU, 5-Flurouracil, reference compound], the figures for the “mean tumor volume (calipers, mean +/- SD)” value in the experiment with HCT116-GFP colon tumors (Treatment Day 15), in the experiment with HCT116-GFP colon tumors (Treatment Day 22) and in the experiment with HCT116-GFP colon tumors (Treatment Day 29) were 0 +/− 0, 1 +/− 4 and 8 +/− 13, respectively.
On to `COc1ccc(CCN(CCC(=O)NO)S(=O)(=O)c2ccc(NC(=O)N(Cc3ccccc3)Cc3ccccc3)cc2)cc1` [Compound G, 3-{[4-(3,3-Dibenzyl-ureido)-benzenesulfonyl]-[2-(4-methoxy-phenyl)-ethyl]-amino}-N-hydroxy-propionamide], for which the “fold-increase in REDD1/RTP801 mRNA expression” value in experiment [1] amounted to 14.1 fold. Further, the “fold-increase in BNIP3 mRNA expression” value with BNIP3 gene expression [2] was 4.2 fold. Further, the “fold-increase in NDRG1 mRNA expression” value in the experiment on NDRG1 gene expression [3] turned out to be 6.8 fold. Also, in the experiment on BNIP3L gene expression [4], the “fold-increase in BNIP3L mRNA expression” value came to 4.3 fold.
As for `COc1ccc2c(O)c(C(=O)NCC(=O)O)nc(Cl)c2c1` [Compound I, [(1-Chloro-4-hydroxy-7-methoxy-isoquinoline-3-carbonyl)-amino]-acetic acid], the “fold-increase in REDD1/RTP801 mRNA expression” value in experiment [1] was 3.8 fold. Besides, the “fold-increase in BNIP3 mRNA expression” value in the experiment with BNIP3 gene expression [2] was 2.1 fold. Also, the “fold-increase in NDRG1 mRNA expression” value in the experiment on NDRG1 gene expression [3] is 3.3 fold. The “fold-increase in BNIP3L mRNA expression” value with BNIP3L gene expression [4] came out at 1.7 fold.
For the compound `O=C(O)CNC(=O)c1ncc2cc(Cl)c(Cl)cc2c1O` [Compound J, [(6,7-Dichloro-4-hydroxy-isoquinoline-3-carbonyl)-amino]-acetic acid], the fold induction at 60 mg/kg is 1.3 in the experiment on BNIP3L gene expression [5], 2 with BNIP3 gene expression [8] and 1.7 with NDRG1 gene expression [10]. Moreover, the fold induction at 20 µM stood at 6.9 with CDKN1C gene expression [6], 0.8 with CDKN1C gene expression [7], 8.9 in the experiment with BNIP3 gene expression [9] and 3.3 in the experiment with BNIP3 gene expression [11].
With `C[C@H](NC(=O)c1ncc2cc(Sc3ccccc3)ccc2c1O)C(=O)O` [Compound L, (S)-2-[(4-Hydroxy-7-phenylsulfanyl-isoquinoline-3-carbonyl)-amino]-propionic acid], the figures for the fold induction at 60 mg/kg with BNIP3L gene expression [5], with BNIP3 gene expression [8] and in the experiment on NDRG1 gene expression [10] were 3.4, 2.8 and 1, respectively. The fold induction at 20 µM in the experiment with CDKN1C gene expression [6] is 120; with CDKN1C gene expression [7], 0.2; with BNIP3 gene expression [9], 32.8; in the experiment with BNIP3 gene expression [11] it was 4.8.
Consider `O=C(O)CNC(=O)c1nc(Oc2ccccc2)c2cc(Oc3ccccc3)ccc2c1O` [Compound M, [(4-Hydroxy-1,7-diphenoxy-isoquinoline-3-carbonyl)-amino]-acetic acid], for which the fold induction at 20 µM with CDKN1C gene expression [6] is 3.4; in the experiment with CDKN1C gene expression [7], 2.1; in the experiment with BNIP3 gene expression [9], 27.6; in the experiment on BNIP3 gene expression [11], 0.4.
